Data reported in patent US12594259B2, “Treatment regimen for the treatment of neurological diseases or conditions” (ACCURE THERAPEUTICS, S.L., priority 2019, dated 2026).
“Also recorded” adds a separate entry of the source. Where two headings read alike, the source gives them in different places.

Key:
[1] = Plasma pharmacokinetics of BN201 in rats (LC-MS/MS, WinNonlin); assay type: in vivo, Sprague Dawley Rat; conditions: 7 doses, Mean ± SEM; for Vd: iv, 25 mg/kg; for AUC(0-inf) / AUC(0-t) / Cmax / Tmax / half-life / AUC_%Extrap (obs): rat plasma
Method: (§1) • Receipt of animals (Male Sprague Dawley Rats, Age: 12-13 weeks, Body weight range at the time of study initiation: 306.8 — 385.2 g) and acclimatization of animals for a period of at least one week • Day 0: Administration of Lysolecithin in optic nerve • Administration of test compound (BN201) daily (Day 0 to day 6=7 doses in total) intra-peritoneally (IP) at various doses (10 mg/Kg, 25 mg/Kg, 70 mg/Kg) and Intravenously (infusion 25 mg/Kg) over 2 h for block1. • On day 6, Sampling of blood from block1 for plasma at predetermined time points (8-9 time points) for PK and tissue collection (Eye and optic nerve) for histopathological assessment. • Determination of plasma levels of BN201 by LC-MS/MS • Determination of Pharmacokinetic Parameters of BN201 by WinNonlin Analysis • Test compound administration (IP@10 & 25 mg/Kg) once daily (Day 0 to day 6=7 doses in total) for block2; Tissue collection (Eye and optic nerve collection during termination of the study) on day 14, and 28 for histopathological assessment. 3. Animal Conditioning
(§2) • Group 1 and 2 served as sham and pathological control respectively and only saline was administered • Test compound was delivered once at various doses (as mentioned above) through IP or IV infusion in the respective groups. The first dosage was given 1 hour after Lysolecithin injection and repeated once/day until the end of the experiment • On day 6, blood was collected at various time points after administration of test item for drug concentration measurement: • Group 3-5 (IP groups): Pre-dose, 0.25, 0.5, 1, 4, 8 h, 12 h & 24 h (8 time points) • Group 6 (IV Infusion group): Pre-dose, then the following times post infusion: Oh (end of the infusion), 0.25 h, 0.5 h, 1 h, 4 h, 8 h, 12 h & 24 h (9 time points) • ˜200 μL of blood per time point was collected from Jugular vein for all the time points in K2EDTA blood collection tubes and stored at 4° C. until plasma separation within 30 minutes. After plasma separation, all the plasma samples were stored in two aliquots at −80° C. until the completion of all the time points. Further, one aliquot of plasma samples was submitted together to the DMG/KG for drug concentration analysis. 9. Observation and Readouts 9.1 Body weight
Study samples were processed by protein precipitation method using cold acetonitrile. In brief, 10 μL of plasma was mixed with 200 μL of acetonitrile containing 100 ng/mL-Verapamil as internal standard. The contents were vortexed to ensure mixing and the precipitated protein was removed by centrifugation at 4000 rpm for 15 minutes at 4° C. The supernatant was collected and submitted for Bioanalysis.

[2] = system: Lysolecithin induced optic neuritis in SD Rats; experiment: Retinal ganglion cell (RGC) count in lysolecithin induced acute optic neuritis model; assay type: in vivo, Sprague Dawley Rat
Method: as §1
(§3) Animals were anesthetized; the shaved skin was disinfected with 75% ethanol. A 1 cm incision was made in the skin above the orbit of an eye. The lacrimal glands and extraocular muscles were resected to expose 3 mm of the optic nerve under an operating microscope. The dura and arachnoid matter around the optic nerve were opened longitudinally. A small amount of dye was placed on the dura to show the microinjection site. This is done to identify the focal lesion for the histology. Microinjection was performed with a glass micropipette attached to a Hamilton syringe. The pipette was inserted into the optic nerve as superficially as possible at 2 mm posterior to the globe, and 0.8 μL of 1% lysolecithin (with 0.02% Evan's Blue) was slowly pressure-injected into the nerve over approximately 30 seconds. The sham control rats (animals without disease) were injected with 0.02% Evan's Blue in 0.8 μL saline without lysolecithin. After the injection, the skin incision was sutured, and antibiotic solution were administered to prevent infection.
as §2
(§4) • Animals were euthanized on Day 7 with CO2 and were perfused transcardially with saline and 4% paraformaldehyde. Optic nerves (from globe to chiasm) and eye were removed and were fixed in 1% paraformaldehyde overnight. Eye from all the animals were collected in Davidson's fixative. • All tissues were processed in an automatic tissue processor and embedded in paraffin. Five-micro meter-thick (5 μm) transverse sections were made at the site of injections (at the place of the dye) using a rotary microtome. • Serial sections of each optic nerve were obtained (4-6 sections). […]

[3] = system: Lysolecithin induced optic neuritis in SD Rats; experiment: Demyelination score (Luxol fast blue stained optic nerve) in lysolecithin induced acute optic neuritis model; assay type: in vivo, Sprague Dawley Rat
Method: as §1, §3, §2, §4

[4] = system: Lysolecithin induced optic neuritis in SD Rats; experiment: Axonal loss score (BSS stained optic nerve) in lysolecithin induced acute optic neuritis model; assay type: in vivo, Sprague Dawley Rat
Method: as §1, §3, §2, §4

[5] = Body weight in lysolecithin induced acute optic neuritis study; assay type: in vivo, Sprague Dawley Rat; conditions: Blocks 1 & 2, compared to pathological control group
Method: Body weight measurement was performed every morning from day 0 to day 7. All animals were observed regularly for clinical signs.

[6] = system: Lysolecithin induced optic neuritis in SD Rats; experiment: Inflammation (H&E stained optic nerve) in lysolecithin induced acute optic neuritis model; assay type: in vivo, Sprague Dawley Rat; conditions: BN201 treatment, conclusions over blocks 1 and 2
Method: as §1
Animals were anesthetized; the shaved skin was disinfected with 75% ethanol. […]
• Group 1 and 2 served as sham and pathological control respectively and only saline was administered • Test compound was delivered once at various doses (as mentioned above) through IP or IV infusion in the respective groups. […] Observation and Readouts 9.1 Body weight […]

[7] = system: Lysolecithin induced optic neuritis in SD Rats; experiment: Overall efficacy in lysolecithin induced acute optic neuritis model; assay type: in vivo, Sprague Dawley Rat; conditions: daily IV 25 mg/Kg (2 h infusion) compared to 10, 25 and 70 mg/Kg IP
Method: The aim of Block1 was to determine the efficacy of BN201 administered intraperitoneally at various doses (10 mg/Kg, 25 mg/Kg, 70 mg/Kg) and intravenously at 25 mg/Kg in Lysolecithin induced optic neuritis in SD Rats (7 days study).
The aim of Block2 was to determine the efficacy of BN201 in long duration model of lysolecithin induced optic neuritis in SD rats (14 and 28 day study) […]
• Group 1 and 2 served as sham and pathological control respectively and only saline was administered • Test compound was delivered once at various doses (as mentioned above) through IP or IV infusion in the respective groups. […] Observation and Readouts 9.1 Body weight

[8] = Phase 1 trial in healthy volunteers (pharmacokinetics); assay type: in vivo; conditions: humans
[9] = system: serum-glucocorticoid (SGK) pathway; conditions: cited from earlier work
[10] = male, Sprague Dawley, IP 10 mg/Kg once daily
[11] = male, Sprague Dawley, IP 25 mg/Kg once daily
[12] = male, Sprague Dawley, IP 70 mg/Kg once daily
[13] = male, Sprague Dawley, IV infusion 25 mg/Kg over 2 h once daily
[14] = BN201 treatment, short term and long term, summary vs untreated groups
[15] = Block 2, day 28, 25 mg/Kg IP day 0 to day 6, vs placebo (p<0.05)

CC(C)CN(CC(=O)N(CCCN1CCCC1=O)CC(N)=O)C(=O)CNCCc1ccccc1F [BN201, [N-(2-(2′-fluorophenyl)ethyl)-glycyl]-[N-(2-methylpropyl)-glycyl]-N-[3-(2′-oxopyrrolidinyl)-propyl]glycinamide]
MRT inf ([1]; male, Sprague Dawley, plasma, rat, IV infusion 25 mg/Kg over 2 h once daily): 3 h | clearance ([1]; male, Sprague Dawley, plasma, rat, IV infusion 25 mg/Kg over 2 h once daily, read-out: CLp (converted)): 31.7 mL/min/kg | Vd ([1]; male, Sprague Dawley, rat, plasma, rat, IV infusion 25 mg/Kg over 2 h once daily, read-out: Vd): 15.8 ± 2.2 L/kg | Vd ([1]; male, Sprague Dawley, rat, plasma, rat, IV infusion 25 mg/Kg over 2 h once daily, read-out: Vdss): 5.7 ± 1.2 L/kg | AUC(0-inf) [1, 10]: 6990 ng·h/mL | AUC(0-t) [1, 10]: 6920 ± 385 ng·h/mL | Cmax [1, 10]: 6680 ± 349 ng/mL | Tmax [1, 10]: 0.3 h | half-life [1, 10]: 5.5 ± 0.9 h | AUC(0-inf) [1, 11]: 14700 ± 840 ng·h/mL | AUC(0-t) [1, 11]: 14500 ± 859 ng·h/mL | Cmax [1, 11]: 14400 ± 1540 ng/mL | Tmax [1, 11]: 0.3 h | half-life [1, 11]: 5.8 ± 0.2 h | AUC(0-inf) [1, 12]: 62800 ± 2760 ng·h/mL | AUC(0-t) [1, 12]: 62400 ± 2720 ng·h/mL | Cmax [1, 12]: 34700 ± 2010 ng/mL | Tmax [1, 12]: 0.3 h | half-life [1, 12]: 4.7 ± 0.8 h | AUC(0-inf) [1, 13]: 15400 ± 1810 ng·h/mL | AUC(0-t) [1, 13]: 15100 ± 1780 ng·h/mL | Cmax [1, 13]: 10400 ± 1320 ng/mL | Tmax [1, 13]: 2 h | half-life [1, 13]: 6.2 ± 0.9 h | AUC_%Extrap (obs) ([1]; IP 10 mg/Kg once daily): 1 ± 0.2% | AUC_%Extrap (obs) ([1]; IP 25 mg/Kg once daily): 1 ± 0.3% | AUC_%Extrap (obs) ([1]; IP 70 mg/Kg once daily): 0.5 ± 0.1% | AUC_%Extrap (obs) ([1]; IV infusion 25 mg/Kg over 2 h once daily): 1.6 ± 0.2% | retinal ganglion cells [2, 14]: significant improvement in retinal ganglion cells | protection against retinal ganglion cell loss ([2]; Block 1, day 7, 25 mg/Kg IP): 48% | protection against retinal ganglion cell loss ([2]; Block 1, day 7, 70 mg/Kg IP): 69% | RGC count ([2]; Block 1, day 7, BN201 treated groups vs pathological control): trend of increased RGC count | RGC count ([2]; Block 1, day 7, IV infusion 25 mg/Kg vs pathological control): statistically significant improvement in RGC count | RGC count [2, 15]: improvements; also recorded: significantly higher | demyelination [3, 14]: reduced; also recorded: significant improvement | protection against demyelination (demyelination score) ([3]; Block 1, day 7, 10 mg/Kg IP): 13% | protection against demyelination (demyelination score) ([3]; Block 1, day 7, 25 mg/Kg IP): 15% | protection against demyelination ([3]; Block 1, day 7, 25 mg/Kg IV infusion): 22% | protection against demyelination (demyelination score) ([3]; Block 1, day 7, 70 mg/Kg IP): 44% | Demyelination score ([3]; Block 2, day 28, 10 mpk IP day 0 to day 6, vs placebo (p<0.05)): significantly lower | Demyelination score ([3]; Block 2, day 28, 25 mpk IP day 0 to day 6, vs placebo (p<0.05)): significantly lower | axonal loss ([4]; BN201 treatment, conclusions over blocks 1 and 2): reduced | protection against axonal loss (axonal loss score) ([4]; Block 1, day 7, 10, 25 and 70 mg/Kg IP): 36-39% | protection against axonal loss ([4]; Block 1, day 7, IV infusion 25 mg/Kg): 62% | Axonal loss score ([4]; Block 2, day 28, 10 mg/Kg IP day 0 to day 6, vs placebo (p<0.05)): significant reduction in axonal loss; also recorded: significantly lower | Axonal loss score [4, 15]: significant reduction in axonal loss; also recorded: significantly lower | protection of axons against injury ([4]; IP or IV, 10 to 70 mg/Kg/day for 6 days, short term (7 days) and long term (up to day 28 post-injury)): able to protect axons against injury | Body weight [5]: did not significantly change the body weight | inflammation [6]: reduced inflammation | protection against optic neuritis [7]: superior protection against optic neuritis | half-life ([8]; human, in vivo): ≤ 8 h | clearance of the drug [8]: quick clearance | drug accumulation [8]: lack of drug accumulation | activation of the SGK pathway, including phosphorylation of Foxo3 or NDRG1 [9]: activates the serum-glucocorticoid (SGK) pathway
